Experimental data reported in article PMC11882969 (Nature Communications, 2025).
Several values for one entry are separate records, joined by “and”; a condition that tells them apart may be missing. Equal entries are not always repeated. Where two headings read alike, the source gives them in different places.

How the values were obtained:
hCB1 = hCB1 (Homo sapiens, UniProt P21554); assay: bioSensAll ebBRET signaling profiling, hCB1; format: cell-based; set-up: host or cells: HEK293SL cells, transient PEI transfection; conditions: for Gi1 hCB1 response: Gi1 biosensor; for Gi1 hCB1 / GoB hCB1: single replicate values, FigS6a; for Emax [95% CI]: normalized to CP-55,940; for EC50: read-out: EC50 [95% CI]
CB1 (rCB1) = CB1 (rCB1) (Rattus norvegicus, UniProt P20272); assay: Radioligand competition binding, [3H]-CP-55,940, rat brain membranes
Chain of CB1 (rCB1) (P20272 whole entry): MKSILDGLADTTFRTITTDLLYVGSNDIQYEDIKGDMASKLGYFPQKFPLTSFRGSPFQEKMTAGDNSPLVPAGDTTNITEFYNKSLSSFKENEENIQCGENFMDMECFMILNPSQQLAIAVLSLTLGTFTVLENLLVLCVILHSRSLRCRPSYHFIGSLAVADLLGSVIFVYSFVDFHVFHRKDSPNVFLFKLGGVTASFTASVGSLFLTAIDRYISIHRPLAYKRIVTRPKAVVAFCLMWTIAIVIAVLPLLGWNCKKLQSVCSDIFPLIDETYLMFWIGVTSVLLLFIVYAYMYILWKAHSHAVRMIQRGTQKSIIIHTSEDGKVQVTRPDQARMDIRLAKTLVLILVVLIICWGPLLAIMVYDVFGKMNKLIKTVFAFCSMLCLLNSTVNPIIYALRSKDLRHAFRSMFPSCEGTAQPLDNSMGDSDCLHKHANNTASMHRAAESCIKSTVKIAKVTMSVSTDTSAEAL

Chain of hCB1 (P21554 whole entry): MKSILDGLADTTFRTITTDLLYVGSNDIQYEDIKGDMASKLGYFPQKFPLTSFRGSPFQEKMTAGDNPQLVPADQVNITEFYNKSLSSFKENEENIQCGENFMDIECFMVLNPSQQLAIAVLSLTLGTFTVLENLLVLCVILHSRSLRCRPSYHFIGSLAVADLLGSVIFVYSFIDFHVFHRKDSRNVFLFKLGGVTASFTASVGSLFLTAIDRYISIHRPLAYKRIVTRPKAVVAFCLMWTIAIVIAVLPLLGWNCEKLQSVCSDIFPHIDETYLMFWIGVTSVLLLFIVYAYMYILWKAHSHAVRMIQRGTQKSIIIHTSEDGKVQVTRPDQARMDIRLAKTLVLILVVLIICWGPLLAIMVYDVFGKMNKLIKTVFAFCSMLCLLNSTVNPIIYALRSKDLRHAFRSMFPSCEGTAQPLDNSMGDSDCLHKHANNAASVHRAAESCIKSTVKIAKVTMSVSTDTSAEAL

Structure (SMILES): COC(=O)[C@@H]1[C@@H]2CC[C@@H]2CN1C(=O)c1cc(C)n(-c2cccc(C(F)(F)F)c2)n1 [‘6448]
- Gi1 hCB1 response (hCB1; Log [Compound] (M) -4.22186): 143.498
- Gi1 hCB1 response (hCB1; Log [Compound] (M) -4.63927): 116.752
- Gi1 hCB1 response (hCB1; Log [Compound] (M) -5.05788): 114.537
- Gi1 hCB1 response (hCB1; Log [Compound] (M) -5.47381): 101.197
- Gi1 hCB1 response (hCB1; Log [Compound] (M) -5.89285): 80.4274
- Gi1 hCB1 response (hCB1; Log [Compound] (M) -6.31878): 64.6261
- Gi1 hCB1 response (hCB1; Log [Compound] (M) -6.72585): 36.0226
- Gi1 hCB1 response (hCB1; Log [Compound] (M) -7.14267): 33.4711
- Gi1 hCB1 response (hCB1; Log [Compound] (M) -7.55284): 2.182
- Gi1 hCB1 response (hCB1; Log [Compound] (M) -8): -1.914
- Gi1 hCB1 response (hCB1; Log [Compound] (M) -8.22186): -2.63
- Gi1 hCB1 response (hCB1; Log [Compound] (M) -8.39794): -2.8987
- Gi1 hCB1 response (hCB1; Log [Compound] (M) -8.68787): 4.689
- Gi1 hCB1 response (hCB1; Log [Compound] (M) -9.15521): 0.03327
- Gi1 hCB1 response (hCB1; Log [Compound] (M) -9.61989): -4.421
- Gi1 hCB1 response (hCB1; Log [Compound] (M) -10.0969): -3.391
- Gi1 hCB1 response (hCB1; Log [Compound] (M) -10.5529): -11.5156
- Gi1 hCB1 response (hCB1; Log [Compound] (M) -11.0177): -16.4171
- Gi1 hCB1 response (hCB1; Log [Compound] (M) -11.4949): -6.8826
- Gi1 hCB1 response (hCB1; Log [Compound] (M) -11.9208): -5.674
- Gi1 hCB1 response (hCB1; Log [Compound] (M) -12.3979): -5.204
- Gi1 hCB1 response (hCB1; Log [Compound] (M) -12.8861): 5.741
- Gi1 hCB1 response (hCB1; Log [Compound] (M) -13, individual replicate values): -12.366 and -4.51
- Gi1 hCB1 (hCB1; Log [Compound] (M) -4.22186): 89.2431
- GoB hCB1 (hCB1; Log [Compound] (M) -4.22186): 86.7412
- Gi1 hCB1 (hCB1; Log [Compound] (M) -4.63927): 88.0098
- GoB hCB1 (hCB1; Log [Compound] (M) -4.63927): 85.932
- Gi1 hCB1 (hCB1; Log [Compound] (M) -5.05788): 83.6623
- GoB hCB1 (hCB1; Log [Compound] (M) -5.05788): 87.6943
- Gi1 hCB1 (hCB1; Log [Compound] (M) -5.47381): 80.8256
- GoB hCB1 (hCB1; Log [Compound] (M) -5.47381): 88.7014
- Gi1 hCB1 (hCB1; Log [Compound] (M) -5.89285): 71.5911
- GoB hCB1 (hCB1; Log [Compound] (M) -5.89285): 74.7104
- Gi1 hCB1 (hCB1; Log [Compound] (M) -6.31878): 53.785
- GoB hCB1 (hCB1; Log [Compound] (M) -6.31878): 55.1804
- Gi1 hCB1 (hCB1; Log [Compound] (M) -6.72585): 28.6559
- GoB hCB1 (hCB1; Log [Compound] (M) -6.72585): 28.2594
- Gi1 hCB1 (hCB1; Log [Compound] (M) -7.14267): 11.4665
- GoB hCB1 (hCB1; Log [Compound] (M) -7.14267): 15.0956
- Gi1 hCB1 (hCB1; Log [Compound] (M) -7.55284): 4.6215
- GoB hCB1 (hCB1; Log [Compound] (M) -7.55284): 3.137
- Gi1 hCB1 (hCB1; Log [Compound] (M) -8): 2.093
- GoB hCB1 (hCB1; Log [Compound] (M) -8): 2.004
- Gi1 hCB1 (hCB1; Log [Compound] (M) -8.22186): -0.06514
- GoB hCB1 (hCB1; Log [Compound] (M) -8.22186): -3.751
- Gi1 hCB1 (hCB1; Log [Compound] (M) -8.39794): 1.1836
- GoB hCB1 (hCB1; Log [Compound] (M) -8.39794): 1.464
- Gi1 hCB1 (hCB1; Log [Compound] (M) -8.68787): -1.113
- GoB hCB1 (hCB1; Log [Compound] (M) -8.68787): -5.28
- Gi1 hCB1 (hCB1; Log [Compound] (M) -9.15521): -0.1114
- GoB hCB1 (hCB1; Log [Compound] (M) -9.15521): -2.294
- Gi1 hCB1 (hCB1; Log [Compound] (M) -9.61989): 0.7519
- GoB hCB1 (hCB1; Log [Compound] (M) -9.61989): -1.629
- Gi1 hCB1 (hCB1; Log [Compound] (M) -10.0969): 0.8753
- GoB hCB1 (hCB1; Log [Compound] (M) -10.0969): -3.751
- Gi1 hCB1 (hCB1; Log [Compound] (M) -10.5529): 1.9236
- GoB hCB1 (hCB1; Log [Compound] (M) -10.5529): -0.9636
- Gi1 hCB1 (hCB1; Log [Compound] (M) -11.0177): -0.281
- GoB hCB1 (hCB1; Log [Compound] (M) -11.0177): -2.384
- Gi1 hCB1 (hCB1; Log [Compound] (M) -11.4949): -0.1268
- GoB hCB1 (hCB1; Log [Compound] (M) -11.4949): -1.305
- Gi1 hCB1 (hCB1; Log [Compound] (M) -11.9208): -0.1885
- GoB hCB1 (hCB1; Log [Compound] (M) -11.9208): 1.266
- Gi1 hCB1 (hCB1; Log [Compound] (M) -12.3979): 1.723
- GoB hCB1 (hCB1; Log [Compound] (M) -12.3979): 0.7628
- Gi1 hCB1 (hCB1; Log [Compound] (M) -12.8861): 0.4436
- GoB hCB1 (hCB1; Log [Compound] (M) -12.8861): -2.798
- Gi1 hCB1 (hCB1; Log [Compound] (M) -13): 0.1969 and 0.2278
- GoB hCB1 (hCB1; Log [Compound] (M) -13): 1.32 and 1.356
- pEC50 [95% CI] (hCB1; hCB1 Gi1): 6.5 [6.4 – 6.5]
- Emax [95% CI] (hCB1; hCB1 Gi1): 87 [86 – 88]
- pEC50 [95% CI] (hCB1; hCB1 GoB): 6.5 [6.4 – 6.6]
- Emax [95% CI] (hCB1; hCB1 GoB): 90 [87 – 91]
- pEC50 [95% CI] (hCB1; hCB1 Gz): 6.1 [5.9 – 6.4]
- Emax [95% CI] (hCB1; hCB1 Gz): 151 [130 –172]
- EC50 (hCB1; hCB1 Gi1): 345 nM
- EC50 (hCB1; hCB1 GoB): 310 nM
- EC50 (hCB1; hCB1 Gz): 728 nM
- pKi [95% CI] (CB1 (rCB1); rCB1): 6.1 [5.9 – 6.3]
- Ki (CB1 (rCB1); read-out: Ki [95% CI], rCB1, [3H]-CP-55,940): 866 nM
